# From patent US10106501B2, “Nuclear receptor modulators” (AbbVie Inc., priority 2015, dated 2018)
# Molecular target: T1, chimeric human RORγ-Gal4 receptor (Homo sapiens, UniProt P51449)
# T1 sequence (P51449 269-508 limits assumed): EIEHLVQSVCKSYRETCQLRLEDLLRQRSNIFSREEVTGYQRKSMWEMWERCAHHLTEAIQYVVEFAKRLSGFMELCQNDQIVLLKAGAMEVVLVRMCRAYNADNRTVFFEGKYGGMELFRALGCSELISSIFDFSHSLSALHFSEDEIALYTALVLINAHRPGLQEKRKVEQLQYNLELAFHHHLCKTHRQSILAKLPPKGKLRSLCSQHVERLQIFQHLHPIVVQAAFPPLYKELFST
# Test: transient transactivation assay (RORγ-Gal4 luciferase reporter)
# Format: cell-based
# Settings: Cos-7 cells transfected with RORγ-Gal4 and 5Gal4 pGL3 TK Luc reporter; overnight incubation; T0901317 at 10^-5 M as reference; read-out: IC50
row,Compound,IC50 [µM]
1,"Cc1cc(C(F)(F)F)cc2c1cc(C(=O)c1c(Cl)ccc(CO)c1Cl)n2C [Example AR, (2,6-dichloro-3-(hydroxymethyl)phenyl)(1,4-dimethyl-6-(trifluoromethyl)-1H-indol-2-yl)methanone]",1 to 10
2,Cc1cc(C#N)cc2c1cc(Cc1c(Cl)ccc(C(=O)N3CCC(CO)C3)c1Cl)n2C (centres unmarked) [AA-19],0.1 to 0.5
3,Cc1cc(C#N)cc2c1cc(Cc1c(Cl)cnc(C(=O)N3CCC(O)CC3)c1Cl)n2C [BF-2],0.1 to 0.5
4,"Cc1cc(C)c2nc(Cc3c(Cl)ccc(C(=O)N4CCOCC4)c3Cl)n(C)c2c1 [Example BO, (2,4-dichloro-3-((1,4,6-trimethyl-1H-benzo[d]imidazol-2-yl)methyl)phenyl)(morpholino)methanone]",0.5 to 1
5,Cc1cc(C#N)cc2c1nc(Cc1c(Cl)ccc(C(=O)N3CCC(CC(C)(C)O)CC3)c1Cl)n2C [BN-16],0.5 to 1
6,"Cn1c(Cc2c(Cl)ccc(C(=O)N3CCOCC3)c2Cl)cc2cc(C#N)ccc21 [Example AB, 2-(2,6-dichloro-3-(morpholine-4-carbonyl)benzyl)-1-methyl-1H-indole-5-carbonitrile]",0.1 to 0.5
7,Cc1cc(C(F)(F)F)cc2c1cc(Cc1c(Cl)ccc(C(=O)N3C[C@@]4(C(=O)O)CC[C@@H]3C4)c1Cl)n2C [Example B-16],0.1 to 0.5
8,Cc1cc(C#N)cc2c1nc(Cc1c(Cl)ccc(C(=O)N3CCC4(CCOC4)CC3)c1Cl)n2C [BN-8],0.1 to 0.5
9,Cc1cc(C#N)cc2c1cc(Cc1c(Cl)ccc(C(=O)N3CC(O)C3)c1Cl)n2C [AA-20],0.1 to 0.5
10,"Cc1cc(C#N)cc2c1cc(Cc1c(Cl)ccc(O[C@H]3C[C@@H](C(=O)O)C3)c1Cl)n2C [Example AH1, cis-3-(2,4-dichloro-3-((6-cyano-1,4-dimethyl-1H-indol-2-yl)methyl)phenoxy)cyclobutanecarboxylic acid]",0.5 to 1
11,Cc1cc(C(F)(F)F)cc2c1nc(Cc1c(Cl)ccc(CN3CCN(CC(F)(F)F)CC3)c1Cl)n2C [BW-15],0.1 to 0.5
12,"Cc1cc(C#N)cc2c1cc(Cc1c(Cl)ccc(O[C@H]3CC[C@@H](C(=O)O)CC3)c1Cl)n2C [Example AF1, cis-4-(2,4-dichloro-3-((6-cyano-1,4-dimethyl-1H-indol-2-yl)methyl)phenoxy)cyclohexanecarboxylic acid]",0.5 to 1
13,Cc1cc(C(F)(F)F)cc2c1nc(Cc1c(Cl)ccc(CN3CCC(CC(C)(C)O)CC3)c1Cl)n2C [BW-12],0.5 to 1
14,Cc1cc(C#N)cc2c1cc(Cc1c(Cl)ccc(C(=O)N3CCC4(CC3)COC4)c1Cl)n2C [AA-25],0.1 to 0.5
15,COCC1CCN(C(=O)c2ccc(Cl)c(Cc3nc4c(C)cc(C(F)(F)F)cc4n3C)c2Cl)CC1 [BJ-13],0.1 to 0.5
16,Cc1cc(C#N)cc2c1cc(Cc1c(Cl)ccc(C(=O)NC3CCC(O)CC3)c1Cl)n2C (centres unmarked) [AA-22],0.1 to 0.5
17,COCCN1CCN(Cc2ccc(Cl)c(Cc3nc4c(C)cc(C(F)(F)F)cc4n3C)c2Cl)CC1 [BW-9],0.1 to 0.5
18,"Cc1cc(C(F)(F)F)nc2c1cc(C(=O)c1c(Cl)ccc(C(=O)N3CC[C@@H](C(=O)O)[C@@H](C)C3)c1Cl)n2C [Example FX, (3R,4R)-1-(2,4-dichloro-3-(1,4-dimethyl-6-(trifluoromethyl)-1H-pyrrolo[2,3-b]pyridine-2-carbonyl)benzoyl)-3-methylpiperidine-4-carboxylic acid]",0.1 to 0.5
19,"Cn1c(Cc2c(Cl)ccc(C(=O)N3CCC(CC(=O)O)CC3)c2Cl)cc2c(F)cc(C(F)(F)F)cc21 [Example FE, 2-(1-(2,4-dichloro-3-((4-fluoro-1-methyl-6-(trifluoromethyl)-1H-indol-2-yl)methyl)benzoyl)piperidin-4-yl)acetic acid]",< 0.1
20,Cc1cc(C(F)(F)F)cc2c1nc(Cc1c(Cl)ccc(CN3CCC(O)CC3)c1Cl)n2C [BW-4],0.1 to 0.5
21,"Cc1cc(N2CCOCC2)cc2c1cc(Cc1c(Cl)ccc(C(=O)N3CCOCC3)c1Cl)n2C [Example AY, (2,4-dichloro-3-((1,4-dimethyl-6-morpholino-1H-indol-2-yl)methyl)phenyl)(morpholino)methanone]",< 0.1
22,"Cc1cc(C(F)(F)F)nn2c(C)c(C(=O)c3c(Cl)ccc(C(=O)N4CCC(CC(=O)O)CC4)c3Cl)nc12 [CZ-1A, 2-(1-(2,4-dichloro-3-(3,8-dimethyl-6-(trifluoromethyl)imidazo[1,2-b]pyridazine-2-carbonyl)benzoyl)piperidin-4-yl)acetic acid]",0.1 to 0.5
23,Cc1cc(C(F)(F)F)cc2c1cc(Cc1c(Cl)ccc(C(=O)N3CCCC(C(=O)O)C3)c1Cl)n2C (centres unmarked) [Example B-11],0.1 to 0.5
24,Cc1cc(C(F)(F)F)cn2c(C)c(Cc3c(Cl)ccc(C(=O)N4CCC(O)C4)c3Cl)nc12 (centres unmarked) [CT-4],> 10
25,"Cc1ccc(C(=O)N2CCOCC2)c(C)c1Cc1cc2c(C)cc(C#N)cc2n1C [Example AE, 2-(2,6-dimethyl-3-(morpholine-4-carbonyl)benzyl)-1,4-dimethyl-1H-indole-6-carbonitrile]",0.1 to 0.5
26,"Cc1cc(C#N)nc2c1nc(Cc1c(Cl)ccc(C(=O)N3CCOCC3)c1Cl)n2C [CI, 2-(2,6-dichloro-3-(morpholine-4-carbonyl)benzyl)-3,7-dimethyl-3H-imidazo[4,5-b]pyridine-5-carbonitrile]",1 to 10
27,"Cc1cn(C(=O)c2c(Cl)ccc(C(=O)N3CCC(O)CC3)c2Cl)c2c(C)cc(C#N)cc12 [DM, 1-(2,6-dichloro-3-(4-hydroxypiperidine-1-carbonyl)benzoyl)-3,7-dimethyl-1H-indole-5-carbonitrile]",0.1 to 0.5
28,Cc1cc(C(F)(F)F)cc2c1cc(Cc1c(Cl)ccc(C(=O)N3CC[C@H](C(=O)O)[C@@H](C)C3)c1Cl)n2C [Example B-26],< 0.1

# Next, values leading:
row,IC50 [µM],Compound
1,< 0.1,O=C(O)CC1CCN(C(=O)c2ccc(Cl)c(Cn3ccc4cc(C(F)(F)F)ccc43)c2Cl)CC1 [EI-4]
2,< 0.1,"Cc1cc(C(F)(F)F)cc2c1cc(Cc1c(Cl)ccc(C(=O)N3CCOCC3)c1Cl)n2C [D, (2,4-dichloro-3-((1,4-dimethyl-6-(trifluoromethyl)-1H-indol-2-yl)methyl)phenyl)(morpholino)methanone]"
3,< 0.1,"Cc1cc(OC(F)(F)F)cc2c1c(Cc1c(Cl)cnc(C(=O)N3CCC(CC(=O)O)CC3)c1Cl)cn2C [DX, 2-[1-[3,5-dichloro-4-[[1,4-dimethyl-6-(trifluoromethoxy)-1H-indol-3-yl]methyl]pyridine-2-carbonyl]-4-piperidyl]acetic acid]"
4,< 0.1,"Cn1c(Cc2c(Cl)ccc(C(=O)N3CCOCC3)c2Cl)cc2c(Cl)cc(Cl)cc21 [EZ, (2,4-dichloro-3-((4,6-dichloro-1-methyl-1H-indol-2-yl)methyl)phenyl)(morpholino)methanone]"
5,< 0.1,"Cc1cc(OC(F)(F)F)cc2c1cc(Cc1c(Cl)ccc(C(=O)N3CC[C@H](C(=O)O)[C@H](C)C3)c1Cl)n2C [DP-2, (3S,4S)-1-(2,4-dichloro-3-((1,4-dimethyl-6-(trifluoromethoxy)-1H-indol-2-yl)methyl)benzoyl)-3-methylpiperidine-4-carboxylic acid]"
6,< 0.1,"Cc1c(C#N)ccc2c1cc(Cc1c(Cl)ccc(C(=O)N3CCC(CC(=O)O)CC3)c1Cl)n2C [EY, 2-(1-(2,4-dichloro-3-((5-cyano-1,4-dimethyl-1H-indol-2-yl)methyl)benzoyl)piperidin-4-yl)acetic acid]"
7,< 0.1,"Cc1cc(C(F)(F)F)cc2c(C)n(C(=O)c3c(Cl)ccc(C(=O)N4CCC(CC(=O)O)CC4)c3Cl)nc12 [EB, 2-(1-(2,4-dichloro-3-(3,7-dimethyl-5-(trifluoromethyl)-2H-indazole-2-carbonyl)benzoyl)piperidin-4-yl)acetic acid]"
8,< 0.1,"Cc1cc(OC(F)F)cc2ccn(Cc3c(Cl)ccc(C(=O)N4CCC(CC(=O)O)CC4)c3Cl)c12 [EM, 2-(1-(2,4-dichloro-3-((5-(difluoromethoxy)-7-methyl-1H-indol-1-yl)methyl)benzoyl)piperidin-4-yl)acetic acid]"
9,< 0.1,"COCCC1CCN(C(=O)c2ccc(Cl)c(Cc3cc4c(C)cc(C(F)(F)F)nc4n3C)c2Cl)CC1 [Example FT, (2,4-dichloro-3-((1,4-dimethyl-6-(trifluoromethyl)-1H-pyrrolo[2,3-b]pyridin-2-yl)methyl)phenyl)(4-(2-methoxyethyl)piperidin-1-yl)methanone]"
10,< 0.1,Cc1cc(C(F)(F)F)nn2c(C)c(Cc3c(Cl)ccc(C(=O)N4CCC(C5COC5)CC4)c3Cl)nc12 [CZ-2]
11,< 0.1,"Cn1c(Cc2c(Cl)ccc(C(=O)N3CCC(CC(=O)O)CC3)c2Cl)cc2ccc(OC(F)(F)F)cc21 [Example FI, 2-(1-(2,4-dichloro-3-((1-methyl-6-(trifluoromethoxy)-1H-indol-2-yl)methyl)benzoyl)piperidin-4-yl)acetic acid]"
12,< 0.1,Cc1cc(C(F)(F)F)cc2c1cc(C(=O)c1c(Cl)ccc(C(=O)N3CCC(C4COC4)CC3)c1Cl)n2C [AP-6]
13,< 0.1,Cc1cn(C(=O)c2c(Cl)ccc(C(=O)N3CCC(C(=O)O)CC3)c2Cl)c2c(C)cc(C(F)(F)F)cc12 [DJ1-1]
14,< 0.1,"Cc1cc(C#N)cc2c1cc(Cc1c(Cl)ncc(C(=O)N3CCC(C4COC4)CC3)c1Cl)n2C [Example FC, 2-((2,4-dichloro-5-(4-(oxetan-3-yl)piperidine-1-carbonyl)pyridin-3-yl)methyl)-1,4-dimethyl-1H-indole-6-carbonitrile]"
15,< 0.1,"Cn1c(Cc2c(Cl)cnc(C(=O)N3CCC(CC(=O)O)CC3)c2Cl)cc2ccc(OC(F)(F)F)cc21 [Example GK, 2-(1-(3,5-dichloro-4-((1-methyl-6-(trifluoromethoxy)-1H-indol-2-yl)methyl)picolinoyl)piperidin-4-yl)acetic acid]"
16,< 0.1,"Cn1c(Cc2c(Cl)ncc(C(=O)N3CCC(CC(=O)O)CC3)c2Cl)cc2c(F)cc(C3CC3)cc21 [Example GN, 2-[1-[4,6-dichloro-5-[(6-cyclopropyl-4-fluoro-1-methyl-1H-indol-2-yl)methyl]pyridine-3-carbonyl]-4-piperidyl]acetic acid]"
